Experimental data published in US20230365584A1, “HETEROCYCLIC PERICONDENSED CDC7 KINASE INHIBITORS FOR THE TREATMENT OF CANCER” (SCHRÖDINGER, INC., priority 2020, published 2023).
Counter-ions that a name gives are not always drawn.

What follows are compounds tested against Full length human CDC7 protein co-expressed with DBF4 (Homo sapiens (Human), UniProt O00311) (assay: CDC7 kinase biochemical assay (ADP-Glo, PDKtide substrate)). Details: 0.1 nM CDC7/DBF4, 1 uM ATP, 10 uM PDKtide, 4 h.
Method: CDC7 Kinase Biochemical Assay Protocol:
Full length human CDC7 protein co-expressed with DBF4 was purchased from SignalChem (China). CDC7 kinase activity was determined with PDKtide (SignalChem) as a substrate and by measuring ADP production using the ADP-Glo™ Kinase Assay kit (Promega) following the manufacturers instructions. The kinase reaction was performed using the following conditions: Buffer: 40 mM Tris pH 7.5, 20 mM MgCl2, 0.1 mg/ml BSA and 50 uM DTT. Final reaction mix contained 0.1 nM CDC7/DBF4, 1 uM ATP and 10 uM PDKtide. The kinase reaction time was 4 h. The ADP-Glo signal was measured using an EnVision plate reader (PerkinELmer).
Percent inhibition of CDC7 kinase activity was calculated based on the following formula:
[formula] • Ssample: the signal of compounds • SHigh Ctrl: the signal of high control (DMSO) • SLow Ctrl: the signal of low control (positive control CDC7 inhibitor)

Chain of Full length human CDC7 protein co-expressed with DBF4 (O00311 whole entry): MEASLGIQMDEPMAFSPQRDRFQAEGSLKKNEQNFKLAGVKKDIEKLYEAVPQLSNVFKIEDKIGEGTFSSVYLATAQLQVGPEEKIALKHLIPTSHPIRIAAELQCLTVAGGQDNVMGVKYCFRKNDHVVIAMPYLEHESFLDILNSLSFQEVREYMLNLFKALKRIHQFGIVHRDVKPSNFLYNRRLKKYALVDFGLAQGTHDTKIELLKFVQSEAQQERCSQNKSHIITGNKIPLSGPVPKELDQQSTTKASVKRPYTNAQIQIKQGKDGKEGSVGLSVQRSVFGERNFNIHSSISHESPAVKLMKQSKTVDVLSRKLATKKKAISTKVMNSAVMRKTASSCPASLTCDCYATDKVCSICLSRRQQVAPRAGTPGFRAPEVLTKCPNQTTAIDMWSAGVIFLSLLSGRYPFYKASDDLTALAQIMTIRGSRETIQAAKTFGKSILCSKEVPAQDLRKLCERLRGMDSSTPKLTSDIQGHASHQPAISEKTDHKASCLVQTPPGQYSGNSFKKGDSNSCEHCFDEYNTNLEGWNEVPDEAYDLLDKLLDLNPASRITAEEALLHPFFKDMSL
Chain of Full length human CDC7 protein co-expressed with DBF4 (Q9UBU7 whole entry partner): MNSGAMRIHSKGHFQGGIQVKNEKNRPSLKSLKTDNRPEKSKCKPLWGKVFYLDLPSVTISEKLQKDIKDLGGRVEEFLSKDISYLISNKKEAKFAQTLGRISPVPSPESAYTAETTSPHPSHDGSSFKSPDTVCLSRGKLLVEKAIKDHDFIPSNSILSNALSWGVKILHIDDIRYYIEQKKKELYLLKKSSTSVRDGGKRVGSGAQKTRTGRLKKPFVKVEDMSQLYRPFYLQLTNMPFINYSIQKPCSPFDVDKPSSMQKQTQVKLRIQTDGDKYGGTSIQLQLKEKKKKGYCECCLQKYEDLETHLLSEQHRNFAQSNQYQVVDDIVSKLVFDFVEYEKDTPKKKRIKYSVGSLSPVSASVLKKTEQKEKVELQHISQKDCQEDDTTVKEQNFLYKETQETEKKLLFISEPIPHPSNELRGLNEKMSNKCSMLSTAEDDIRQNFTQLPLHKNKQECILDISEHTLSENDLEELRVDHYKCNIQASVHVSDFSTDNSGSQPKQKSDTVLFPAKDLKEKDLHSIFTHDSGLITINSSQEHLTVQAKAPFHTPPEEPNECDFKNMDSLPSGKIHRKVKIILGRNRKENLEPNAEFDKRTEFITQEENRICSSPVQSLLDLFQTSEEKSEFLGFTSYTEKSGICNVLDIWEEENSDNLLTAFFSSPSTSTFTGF

| IC50 | Compound |
| --- | --- |
| < 1 nM | Cc1n[nH]cc1-c1sc2c(=O)[nH]c(C)c3c2c1OCC3 [Example 4, 6-methyl-2-(3-methyl-1H-pyrazol-4-yl)-5,7-dihydro-3-oxa-1-thia-7-azaacenaphthylen-8(4H)-one] |
| 1 to 10 nM | Cc1n[nH]cc1-c1sc2c(=O)[nH]c(C)c3c2c1OCCC3 [Example 6, 5-methyl-1-(3-methyl-1H-pyrazol-4-yl)-4,6,7,8-tetrahydro-3H-9-oxa-2-thia-4-azabenzo[cd]azulen-3-one] |
| < 1 nM | Cc1[nH]c(=O)c2sc(-c3cn[nH]c3)c3c2c1CC(C)O3 (stereo not drawn) [Example 9, 4,6-dimethyl-2-(1H-pyrazol-4-yl)-5,7-dihydro-3-oxa-1-thia-7-azaacenaphthylen-8(4H)-one] |
| 1 to 10 nM | O=c1[nH]c(CN2CC[C@H](O)C2)c2c3c(c(-c4ccncc4)sc13)OCCC2 [Example 10, (S)-5-((3-hydroxypyrrolidin-1-yl)methyl)-1-(pyridin-4-yl)-4,6,7,8-tetrahydro-3H-9-oxa-2-thia-4-azabenzo[cd]azulen-3-one] |
| < 1 nM | O=c1[nH]c(CN2CC[C@H](O)C2)c2c3c(c(-c4cn[nH]c4)sc13)OCCC2 [Example 11, (S)-5-((3-hydroxypyrrolidin-1-yl)methyl)-1-(1H-pyrazol-4-yl)-4,6,7,8-tetrahydro-3H-9-oxa-2-thia-4-azabenzo[cd]azulen-3-one] |
| < 1 nM | O=c1[nH]c(CN2CCC2)c2c3c(c(-c4ccncc4)sc13)OCCC2 [Example 12, 5-(azetidin-1-ylmethyl)-1-(pyridin-4-yl)-4,6,7,8-tetrahydro-3H-9-oxa-2-thia-4-azabenzo[cd]azulen-3-one] |
| 1 to 10 nM | CC(C)(C)OC(=O)NCc1[nH]c(=O)c2sc(-c3ccncc3)c3c2c1CCCO3 [Example 14, tert-butyl ((3-oxo-1-(pyridin-4-yl)-4,6,7,8-tetrahydro-3H-9-oxa-2-thia-4-azabenzo[cd]azulen-5-yl)methyl)carbamate] |
| 1 to 10 nM | NCc1[nH]c(=O)c2sc(-c3ccncc3)c3c2c1CCCO3 [Example 15, 5-(aminomethyl)-1-(pyridin-4-yl)-4,6,7,8-tetrahydro-3H-9-oxa-2-thia-4-azabenzo[cd]azulen-3-one;hydrochloride] |
| ≥ 10 nM | COc1ccc(CNCc2[nH]c(=O)c3sc(-c4ccncc4)c4c3c2CCCO4)cc1 [Example 16, 5-(((4-methoxybenzyl)amino)methyl)-1-(pyridin-4-yl)-4,6,7,8-tetrahydro-3H-9-oxa-2-thia-4-azabenzo[cd]azulen-3-one] |
| 1 to 10 nM | NCc1[nH]c(=O)c2sc(-c3cn[nH]c3)c3c2c1CCCO3 [Example 17, 7-(aminomethyl)-2-(1H-pyrazol-4-yl)-12-oxa-3-thia-6-azatricyclo[6.4.1.04,13]trideca-1,4(13),7-trien-5-one] |
| < 1 nM | O=c1[nH]c(Cn2cccn2)c2c3c(c(-c4cn[nH]c4)sc13)OCCC2 [Example 18, 2-(1H-pyrazol-4-yl)-7-(pyrazol-1-ylmethyl)-12-oxa-3-thia-6-azatricyclo[6.4.1.04,13]trideca-1,4(13),7-trien-5-one] |
| < 1 nM | O=c1[nH]c(Cn2cccn2)c2c3c(c(-c4ccncn4)sc13)OCCC2 [Example 19, 7-(pyrazol-1-ylmethyl)-2-pyrimidin-4-yl-12-oxa-3-thia-6-azatricyclo[6.4.1.0^4,13]trideca-1,4(13),7-trien-5-one] |
| < 1 nM | Cc1n[nH]cc1-c1sc2c(=O)[nH]c(Cn3cccn3)c3c2c1OCCC3 [Example 20, 2-(3-methyl-1H-pyrazol-4-yl)-7-(pyrazol-1-ylmethyl)-12-oxa-3-thia-6-azatricyclo[6.4.1.0^4,13]trideca-1,4(13),7-trien-5-one] |
| < 1 nM | O=c1[nH]c(Cn2cccn2)c2c3c(c(-c4ccncc4)sc13)OCCC2 [Example 21, 7-(pyrazol-1-ylmethyl)-2-(4-pyridyl)-12-oxa-3-thia-6-azatricyclo[6.4.1.0^4,13]trideca-1,4(13),7-trien-5-one] |
| < 1 nM | O=c1[nH]c(Cn2ccnc2)c2c3c(c(-c4cn[nH]c4)sc13)OCCC2 [Example 22, 7-(imidazol-1-ylmethyl)-2-(1H-pyrazol-4-yl)-12-oxa-3-thia-6-azatricyclo[6.4.1.0^4,13]trideca-1,4(13),7-trien-5-one] |
| < 1 nM | O=c1[nH]c(CN2CCCCC2)c2c3c(c(-c4cn[nH]c4)sc13)OCCC2 [Example 23, 5-(piperidin-1-ylmethyl)-1-(1H-pyrazol-4-yl)-4,6,7,8-tetrahydro-3H-9-oxa-2-thia-4-azabenzo[cd]azulen-3-one] |
| < 1 nM | O=c1[nH]c(CN2CCC(F)(F)C2)c2c3c(c(-c4cn[nH]c4)sc13)OCCC2 [Example 25, 7-[(3,3-difluoropyrrolidin-1-yl)methyl]-2-(1H-pyrazol-4-yl)-12-oxa-13-thia-6-azatricyclo[6.4.1.0^4,13]trideca-1,4(13),7-trien-5-one] |
| < 1 nM | CC(C)(O)c1[nH]c(=O)c2sc(-c3ccncc3)c3c2c1CCCO3 [Example 29, 5-(2-hydroxypropan-2-yl)-1-(pyridin-4-yl)-4,6,7,8-tetrahydro-3H-9-oxa-2-thia-4-azabenzo[cd]azulen-3-one] |
| < 1 nM | CC(NC1CCC1)c1[nH]c(=O)c2sc(-c3cn[nH]c3)c3c2c1CCCO3 (stereo not drawn) [Example 34] |
| < 1 nM | O=C1CCCN1Cc1[nH]c(=O)c2sc(-c3cn[nH]c3)c3c2c1CCCO3 [Example 41, 5-((2-oxopyrrolidin-1-yl)methyl)-1-(1H-pyrazol-4-yl)-4,6,7,8-tetrahydro-3H-9-oxa-2-thia-4-azabenzo[cd]azulen-3-one] |
| < 1 nM | Cc1[nH]c(=O)c2sc(-c3cn[nH]c3)c3c2c1CC(F)(F)CO3 [Example 43, 10,10-difluoro-7-methyl-2-(1H-pyrazol-4-yl)-12-oxa-3-thia-6-azatricyclo[6.4.1.0^4,13]trideca-1,4(13),7-trien-5-one] |
| < 1 nM | CC(C)(O)c1[nH]c(=O)c2sc(-c3cn[nH]c3)c3c2c1CC(F)(F)CO3 [Example 45, 10,10-difluoro-7-(1-hydroxy-1-methyl-ethyl)-2-(1H-pyrazol-4-yl)-12-oxa-3-thia-6-azatricyclo[6.4.1.0^4,13]trideca-1,4(13),7-trien-5-one] |
| 1 to 10 nM | O=C(c1[nH]c(=O)c2sc(-c3cn[nH]c3)c3c2c1CCCO3)N1CCOCC1 [Example 52, 7-(morpholine-4-carbonyl)-2-(1H-pyrazol-4-yl)-12-oxa-3-thia-6-azatricyclo[6.4.1.0^4,13]-trideca-1,4(13),7-trien-5-one] |
| 1 to 10 nM | O=C(c1[nH]c(=O)c2sc(-c3cn[nH]c3)c3c2c1CCCO3)N1CC(O)C1 [Example 53, 5-(3-hydroxyazetidine-1-carbonyl)-1-(1H-pyrazol-4-yl)-4,6,7,8-tetrahydro-3H-9-oxa-2-thia-4-azabenzo[cd]azulen-3-one] |
| < 1 nM | CC(=O)N(C)c1[nH]c(=O)c2sc(-c3cn[nH]c3)c3c2c1CCCO3 [Example 56, N-methyl-N-(3-oxo-1-(1H-pyrazol-4-yl)-4,6,7,8-tetrahydro-3H-9-oxa-2-thia-4-azabenzo[cd]azulen-5-yl)acetamide] |
| < 1 nM | N#CCc1[nH]c(=O)c2sc(-c3cn[nH]c3)c3c2c1CCCO3 [Example 75, 2-(3-oxo-1-(1H-pyrazol-4-yl)-4,6,7,8-tetrahydro-3H-9-oxa-2-thia-4-azabenzo[cd]azulen-5-yl)acetonitrile] |
| < 1 nM | COC(=O)Cc1[nH]c(=O)c2sc(-c3cn[nH]c3)c3c2c1CCCO3 [Example 76, methyl 2-(3-oxo-1-(1H-pyrazol-4-yl)-4,6,7,8-tetrahydro-3H-9-oxa-2-thia-4-azabenzo[cd]azulen-5-yl)acetate] |
| < 1 nM | CC(C)(O)Cc1[nH]c(=O)c2sc(-c3cn[nH]c3)c3c2c1CCCO3 [Example 77, 5-(2-hydroxy-2-methylpropyl)-1-(1H-pyrazol-4-yl)-4,6,7,8-tetrahydro-3H-9-oxa-2-thia-4-azabenzo[cd]azulen-3-one] |
| < 1 nM | O=c1[nH]c(CN2CC(O)C2)c2c3c(c(-c4cn[nH]c4)sc13)OCCC2 [Example 78, 7-[(3-hydroxyazetidin-1-yl)methyl]-2-(1H-pyrazol-4-yl)-12-oxa-3-thia-6-azatricyclo [6.4.1.0^4,13]trideca-1,4(13),7-trien-5-one] |
| < 1 nM | O=c1[nH]c(C2(O)CCCC2)c2c3c(c(-c4cn[nH]c4)sc13)OCCC2 [Example 85, 5-(1-hydroxycyclopentyl)-1-(1H-pyrazol-4-yl)-4,6,7,8-tetrahydro-3H-9-oxa-2-thia-4-azabenzo[cd]azulen-3-one] |
